Test system: A2780
Experiment: Compound was evaluated for antiproliferative activity against human ovarian carcinoma cell line A2780.
Assay type: functional, cell-based

| Structure (SMILES) | IC50 |
| --- | --- |
| CO[C@H]1/C=C\C=C(/C)C(=O)NC2=CC(=O)C(NCC(O)CN)=C(C[C@@H](C)C[C@H](OC)[C@H](O)[C@@H](C)/C=C(\C)[C@@H]1OC(N)=O)C2=O (stereo partly drawn) | 234 nM |
| CO[C@H]1/C=C\C=C(/C)C(=O)NC2=CC(=O)C(NCCCN)=C(C[C@@H](C)C[C@H](OC)[C@H](O)[C@@H](C)/C=C(\C)[C@@H]1OC(N)=O)C2=O | 136 nM |
| COC1=C2C[C@@H](C)C[C@H](OC)[C@H](O)[C@@H](C)/C=C(\C)[C@H](OC(N)=O)[C@@H](OC)/C=C\C=C(/C)C(=O)NC(=CC1=O)C2=O [GELDANAMYCIN] | 3.4 nM |

From ChEMBL document CHEMBL1133900, “Improved synthesis and evaluation of 17-substituted aminoalkylgeldanamycin derivatives applicable to drug delivery systems” (Bioorg Med Chem Lett, 2001)
